{
  "source": "paper PMC6706711",
  "about": "(Iranian Journal of Pharmaceutical Research : IJPR, 2019)",
  "key": {"[1]": {"conditions": "1,000 bootstrap-resampled data sets"}, "[2]": {"conditions": "cited from earlier work", "excerpt": "In this study, the data of 155 children (aged from 1 month to 16 years) infected with MRS were used to establish a PPK model suitable for Chinese children. And then the PK parameters were obtained by Bayesian method. […] But the value of CL is faster than that reported by Marques-Minana et al.([23]) (0.066 L· ..."}, "[3]": {"assay": "Individual pharmacokinetic parameters by renal function subgroup, post hoc empirical Bayesian approach", "conditions": "Total, N=155, mean ± SD", "description": "After fixing the PK parameters and variation in the final model, the PK parameters for individuals in three groups of different renal function were obtained by using post hoc empirical Bayesian approach. The mean values and standard deviation of the parameters in different groups were calculated."}, "MRSA": {"test_system": "MRSA", "design": "method as in 2 sources, one per row (each row's own in cited_ref): ref Giachetto et al. ([32]) ||| ref Frymoyer et al. ([33])", "conditions": "vancomycin 39.92mg·kg-1·d-1; MRSA strains with MIC 1 mg·L-1; ref Giachetto et al. ([32]); cited from earlier work"}, "[4]": {"conditions": "Japanese pediatric patients, ref Yasuhara et al.([17])"}, "[5]": {"conditions": "pediatric patients, ref Wrishko et al.(16)"}},
  "note": "Like-named read-outs stand apart in the source and are kept apart here.",
  "data": [
    {"smiles": "CN[C@H](CC(C)C)C(=O)N[C@H]1C(=O)N[C@@H](CC(N)=O)C(=O)N[C@H]2C(=O)N[C@H]3C(=O)N[C@H](C(=O)N[C@H](C(=O)O)c4cc(O)cc(O)c4-c4cc3ccc4O)[C@H](O)c3ccc(c(Cl)c3)Oc3cc2cc(c3O[C@@H]2O[C@H](CO)[C@@H](O)[C@H](O)[C@H]2O[C@H]2C[C@](C)(N)[C@H](O)[C@H](C)O2)Oc2ccc(cc2Cl)[C@H]1O", "note": "[vancomycin, Vancomycin]", "values": [
      {"measurement": "Exponent for Weight as covariate for CL, bootstrap median", "setting": "[1]", "result": 0.852},
      {"measurement": "Exponent for Weight as covariate for Vd, bootstrap median", "setting": "[1]", "result": 1.018},
      {"measurement": "Exponent for lnGFR as covariate for CL, bootstrap median", "setting": "[1]", "result": 2.378},
      {"measurement": "θVd (typical value for Weight=9 kg), bootstrap median", "setting": "[1]", "result": 5.39, "unit": "L"},
      {"measurement": "CL", "setting": "[2]; [4]", "result": 1.98, "unit": "mL/min/kg"},
      {"measurement": "Vd", "setting": "[2]; [4]", "result": 0.522, "unit": "L/kg"},
      {"measurement": "CL", "setting": "[2]; neonates, ref Marques-Minana et al.([23])", "result": 1.1, "unit": "mL/min/kg"},
      {"measurement": "CL", "setting": "[2]; [5]", "result": 2, "unit": "mL/min/kg"},
      {"measurement": "Vd", "setting": "[2]; [5]", "result": 0.57, "unit": "L/kg"},
      {"measurement": "CL", "setting": "[3]", "result": "2.22 ± 1.1", "unit": "mL/min/kg"},
      {"measurement": "Vd", "setting": "[3]", "result": "0.65 ± 0.30", "unit": "L/kg"},
      {"measurement": "ke", "setting": "[3]", "result": "0.218 ± 0.091", "unit": "h⁻¹"},
      {"measurement": "probability of AUC0-24h/MIC ≥ 400", "setting": "MRSA", "result": 50, "unit": "%"}
    ]}
  ]
}
